# According to patent US8735417B2, “Aminopyrimidines as Syk inhibitors” (Merck Sharp & Dohme Corp., priority 2009, dated 2014):
# pIC50: −log10 of the molar value.
# Target: T1, recombinant human GST-SYK (Homo sapiens, UniProt P43405)
# T1 construct: purchased Carna Biosciences 08-176
# Assay: Homogeneous Time-Resolved Fluorescence (HTRF) assay for the recombinant human SYK enzyme
# Format: biochemical
# Settings: recombinant human GST-SYK 5 pM, ATP 25 μM, 10-dose titration; read-out: rhSYK Activity (IC50)
# Protocol: Homogeneous Time-Resolved Fluorescence (HTRF) Assay for the Recombinant Human SYK Enzyme:
# A recombinant GST-hSYK fusion protein was used to measure potency of compounds to inhibit human SYK activity. The recombinant human GST-SYK (Carna Biosciences #08-176) (5 pM final concentration) was incubated with various concentrations of the inhibitor diluted in DMSO (0.1% final concentration) for 10 minutes at room temperature in 15 mM Tris-HCl (pH 7.5), 0.01% tween 20, 2 mM DTT in 384 well plate format. To initiate the reaction the biotinylated substrate peptide (250 nM final concentration) that contains the phosphorylation site for SYK was added with magnesium (5 mM final concentration) and ATP (25 μM final concentration). Final volume of the reaction was 10 μL. Phosphorylation of the peptide was allowed to proceed for 45′ at room temperature. To quench the reaction and detect the phosphorylated product, 2 nM of a Europium-atiti-phosphotyrosine antibody (Perkin Elmer #AD0161) and 70 nM SA-APC (Perkin-Elmer #CR130-100) were added together in 15 mM Tris pH 7.5, 40 mM EDTA, 0.01% tween 20. Final volume of the quenching solution was 10 μL. The resulting HTRF signal was measured after 30 minutes on a EnVision (Perkin-Elmer) reader using a time-resolved fluorescence protocol.
row,Structure (SMILES),pIC50
1,OC1(c2ccccc2)CCN(c2ncc(-c3cccc(Nc4nccc(C(F)(F)F)n4)c3)s2)C1 (stereo not drawn) [Example 159],6.00 to 7.00
2,OCCC1(c2ccc(Cl)cc2)CCN(c2ncc(-c3cccc(Nc4nccc(C(F)(F)F)n4)c3)s2)C1 (stereo not drawn) [Example 160],5.00 to 6.00
3,FC(F)(F)c1ccnc(Nc2cccc(-c3cnc(N4CCCC4c4ccccc4)s3)c2)n1 (stereo not drawn) [Example 161],6.00 to 7.00
4,NC1CCN(c2ncc(-c3cccc(Nc4nccc(C(F)(F)F)n4)c3)s2)C1 (stereo not drawn) [Example 162],≥ 7.00
5,N[C@H]1CCN(c2ncc(-c3cccc(Nc4nccc(C(F)(F)F)n4)c3)s2)C1 [Example 163],≥ 7.00
6,Cc1cc(Nc2nccc(C(F)(F)F)n2)cc(-c2cnc(N3CC4CNC(CO)C4C3)s2)c1 (stereo not drawn) [Example 165],≥ 7.00
7,O=C1CN(c2ncc(-c3cccc(Nc4nccc(C(F)(F)F)n4)c3)s2)CCCN1 [Example 166],≥ 7.00
8,FC(F)(F)c1ccnc(Nc2cccc(-c3cnc(N4CCCNCC4)s3)c2)n1 [Example 167],≥ 7.00
9,O=C1CCN(c2ncc(-c3cccc(Nc4nccc(C(F)(F)F)n4)c3)s2)CCN1 [Example 168],≥ 7.00
10,CC(=O)N1CCCN(c2ncc(-c3cccc(Nc4nccc(C(F)(F)F)n4)c3)s2)CC1 [Example 169],≥ 7.00
11,OCC1C2CN(c3ncc(-c4cccc(Nc5nccc(C(F)(F)F)n5)c4)s3)CC12 (stereo not drawn) [Example 171],≥ 7.00
12,Cc1cc(Nc2nccc(C(F)(F)F)n2)cc(-c2cnc(N3CCN4CCCC4C3)s2)c1 (stereo not drawn) [Example 172],≥ 7.00
13,Cc1cc(Nc2nccc(C(F)(F)F)n2)cc(-c2cnc(N3CCn4ccnc4C3)s2)c1 [Example 173],≥ 7.00
14,Cc1cc(Nc2nccc(C(F)(F)F)n2)cc(-c2cnc(N3CCn4cncc4C3)s2)c1 [Example 174],≥ 7.00
15,"O=C1OCCN1c1ncc(-c2cccc(Nc3nccc(C(F)(F)F)n3)c2)s1 [Example 175, 3-[5-(3-{[4-(trifluoromethyl)pyrimidin-2-yl]amino}phenyl)-1,3-thiazol-2-yl]-1,3-oxazolidin-2-one]",≥ 7.00
16,CS(=O)(=O)Nc1ncc(-c2cccc(Nc3nccc(C(F)(F)F)n3)c2)s1 [Example 177],≥ 7.00
17,FC(F)(F)c1ccnc(Nc2cccc(-c3cnc(-n4ccnc4)s3)c2)n1 [Example 178],≥ 7.00
18,Cc1cc(Nc2nccc(C(F)(F)F)n2)cc(-c2cnc(N3CCOC3=O)s2)c1 [Example 180],≥ 7.00
19,"Nc1ncc(-c2cccc(Nc3nccc(C(F)(F)F)n3)c2)s1 [Example 181, N-[3-(2-amino-1,3-thiazol-5-yl)phenyl]-4-(trifluoromethyl)pyrimidin-2-amine]",≥ 7.00
20,"CC(=O)OCC(=O)Nc1ncc(-c2cccc(Nc3nccc(C(F)(F)F)n3)c2)s1 [Example 182, 2-oxo-2-{[5-(3-{[4-(trifluoromethyl)pyrimidin-2-yl]amino}phenyl)-1,3-thiazol-2-yl]amino}ethyl acetate]",≥ 7.00
21,"O=C(CO)Nc1ncc(-c2cccc(Nc3nccc(C(F)(F)F)n3)c2)s1 [Example 183, 2-hydroxy-N-[5-(3-{[4-(trifluoromethyl)pyrimidin-2-yl]amino}phenyl)-1,3-thiazol-2-yl]acetamide]",≥ 7.00
22,"CC(=O)Nc1cc(Nc2nccc(C(F)(F)F)n2)cc(-c2cnc(N3CCCNC(=O)C3)s2)c1 [Example 184, N-(3-[2-(3-oxo-1,4-diazepan-1-yl)-1,3-thiazol-5-yl]-5-{[4-(trifluoromethyl)pyrimidin-2-yl]amino}phenyl)acetamide]",≥ 7.00
23,"CCNC(=O)Nc1cc(Nc2nccc(C(F)(F)F)n2)cc(-c2cnc(N3CCCNC(=O)C3)s2)c1 [Example 185, 1-ethyl-3-(3-[2-(3-oxo-1,4-diazepan-1-yl)-1,3-thiazol-5-yl]-5-{[4-(trifluoromethyl)pyrimidin-2-yl]amino}phenyl)urea]",≥ 7.00
24,CC(=O)Nc1cc(Nc2nccc(C(F)(F)F)n2)cc(-c2cnc(N(C)CCO)s2)c1 [Example 186],≥ 7.00
25,CC(=O)Nc1cc(Nc2nccc(C(F)(F)F)n2)cc(-c2cnc(NCCO)s2)c1 [Example 187],≥ 7.00
26,CCNC(=O)Nc1cc(Nc2nccc(C(F)(F)F)n2)cc(-c2cnc(NCCO)s2)c1 [Example 188],≥ 7.00

row,Structure (SMILES),pIC50
1,CN(CCO)c1ncc(-c2cc(N)cc(Nc3nccc(C(F)(F)F)n3)c2)s1 [Example 189],≥ 7.00
2,Nc1cc(Nc2nccc(C(F)(F)F)n2)cc(-c2cnc(NCCO)s2)c1 [Example 190],≥ 7.00
3,"NC(=O)C1CCN(c2ncc(-c3cccc(Nc4nccc(C(F)(F)F)n4)c3)s2)CC1 [Example 191, 1-[5-(3-{[4-(trifluoromethyl)pyrimidin-2-yl]amino}phenyl)-1,3-thiazol-2-yl]piperidine-4-carboxamide]",≥ 7.00
4,"Cc1ccnc(Nc2cccc(-c3cnc(N4CCC(C(=O)O)CC4)s3)c2)n1 [Example 193, 1-(5-{3-[(4-methylpyrimidin-2-yl)amino]phenyl}-1,3-thiazol-2-yl)piperidine-4-carboxylic acid]",6.00 to 7.00
5,"OCCN(CCO)c1ncc(-c2cc(Nc3nccc(C(F)(F)F)n3)cc(N3CCOCC3)c2)s1 [Example 194, 2,2′-({5-[3-(morphpholin-4-yl)-5-{[4-(trifluoromethyl)pyrimidin-2-yl]amino}phenyl]-1,3-thiazol-2-yl}imino)diethanol]",≥ 7.00
6,Cc1cc(Nc2nccc(C3CCC3)n2)cc(-c2cnc(N3CCCNC(=O)C3)s2)c1 [Example 195],≥ 7.00
7,"Cc1cc(Nc2nccc(C3CCCCC3)n2)cc(-c2cnc(N3CCCNC(=O)C3)s2)c1 [Example 196, 4-(5-{3-[(4-cyclohexylpyrimidin-2-yl)amino]-5-methylphenyl}-1,3-thiazol-2-yl)-1,4-diazepan-2-one]",≥ 7.00
8,"Cc1cc(Nc2nccc(C3CCCC3)n2)cc(-c2cnc(N3CCCNC(=O)C3)s2)c1 [Example 197, 4-(5-{3-[(4-cyclopentylpyrimidin-2-yl)amino]-5-methylphenyl}-1,3-thiazol-2-yl)-1,4-diazepan-2-one]",≥ 7.00
9,"Cc1cc(Nc2nccc(C3CC3)n2)cc(-c2cnc(N3CCCNC(=O)C3)s2)c1 [Example 198, 4-(5-{3-[(4-cyclopropylpyrimidin-2-yl)amino]-5-methyphenyl}-1,3-thiazol-2-yl)-1,4-diazepan-2-one]",≥ 7.00
10,"C=Cc1ccnc(Nc2cc(C)cc(-c3cnc(N4CCCNC(=O)C4)s3)c2)n1 [Example 199, 4-(5-{3-[(4-ethenylpyrimidin-2-yl)amino]-5-methylphenyl}-1,3-thiazol-2-yl)-1,4-diazepan-2-one]",≥ 7.00
11,"Cc1cc(Nc2ncc(Cl)cn2)cc(-c2cnc(N3CCCNC(=O)C3)s2)c1 [Example 200, 4-(5-{3-[(5-chloropyrimidin-2-yl)amino]-5-methylphenyl}-1,3-thiazol-2-yl)-1,4-diazepan-2-one]",≥ 7.00
12,Cc1cc(Nc2ncc(F)cn2)cc(-c2cnc(N3CCCNC(=O)C3)s2)c1 [Example 201],≥ 7.00
13,Cc1cc(Nc2ncc(C3CC3)cn2)cc(-c2cnc(N3CCCNC(=O)C3)s2)c1 [Example 202],≥ 7.00
14,Cc1cnc(Nc2cc(C)cc(-c3cnc(N4CCCNC(=O)C4)s3)c2)nc1 [Example 203],≥ 7.00
15,Cc1cc(Nc2nccc(C#N)n2)cc(-c2cnc(N3CCCNC(=O)C3)s2)c1 [Example 204],≥ 7.00
16,COc1ccnc(Nc2cc(C)cc(-c3cnc(N4CCCNC(=O)C4)s3)c2)n1 [Example 205],≥ 7.00
17,Cc1cc(Nc2nccc(C(C)C)n2)cc(-c2cnc(N3CCCNC(=O)C3)s2)c1 [Example 206],≥ 7.00
18,CCc1ccnc(Nc2cc(C)cc(-c3cnc(N4CCCNC(=O)C4)s3)c2)n1 [Example 207],≥ 7.00
19,Cc1cc(Nc2nccc(OCc3ccccc3)n2)cc(-c2cnc(N3CCCNC(=O)C3)s2)c1 [Example 208],≥ 7.00
20,"COc1nc(Nc2cc(C)cc(-c3cnc(N4CCCNC(=O)C4)s3)c2)ncc1Cl [Example 210, 4-(5-{3-[(5-chloro-4-methoxypyrimidin-2-yl)amino]-5-methylphenyl}-1,3-thiazol-2-yl)-1,4-diazepan-2-one]",≥ 7.00
21,"Cc1cc(Nc2ncc(Cl)c(C)n2)cc(-c2cnc(N3CCCNC(=O)C3)s2)c1 [Example 211, 4-(5-{3-[(5-Chloro-4-methylpyrimidin-2-yl)amino]-5-methylphenyl}-1,3-thiazol-2-yl)-1,4-diazepan-2-one]",≥ 7.00
22,"Cc1cc(Nc2nccc(O[C@@H]3CCNC3)n2)cc(-c2cnc(N3CCCNC(=O)C3)s2)c1 [Example 212, 4-{5-[3-methyl-5-({4-[(3R)-pyrrolidin-3-yloxy]pyrimidin-2-yl}amino)phenyl]-1,3-thiazol-2-yl}-1,4-diazepan-2-one]",≥ 7.00
23,Cc1cc(Nc2nccc(OC3CCOC3)n2)cc(-c2cnc(N3CCCNC(=O)C3)s2)c1 (stereo not drawn) [Example 214],≥ 7.00
24,"Cc1cc(Nc2nccc(OC3CCNCC3)n2)cc(-c2cnc(N3CCCNC(=O)C3)s2)c1 [Example 215, 4-[5-(3-methyl-5-{[4-(piperidin-4-yloxy)pyrimidin-2-yl]amino}phenyl)-1,3-thiazol-2-yl]-1,4-diazepan-2-one]",≥ 7.00
25,"Cc1cc(Nc2ncc(F)c(OC3CCOC3)n2)cc(-c2cnc(N3CCCNC(=O)C3)s2)c1 (stereo not drawn) [Example 216, 4-[5-(3-{[5-fluoro-4-(tetrahydrofuran-3-yloxy)pyrimidin-2-yl]amino}-5-methylphenyl)-1,3-thiazol-2-yl]-1,4-diazepan-2-one]",6.00 to 7.00
